Experiments:
A. aerogenes = experiment: Agar plate kill test with Ivory soap, A. aerogenes; assay type: cell-based; settings: Ivory soap; for killing at 5 ppm: 5 p.p.m.
Protocol: (§1) Phenyl-2-thienyliodonium chloride, 2,2'-bisthienyliodonium chloride, and, for comparative purposes, diphenyliodonium chloride are individually dispersed in Ivory soap to provide concentrates containing 1 part by weight of iodonium salt to 50 parts by weight of soap. The soap concentrates are serially dispersed and serially diluted with liquid nutrient agar at 42°C. to prepare culture media containing various concentrations of one of the iodonium salts. The culture media are uniformly inoculated with S. aureus and plated in petri dishes. The inoculation is carried out from broth cultures of the named organism containing about 5×10^8 organisms per milliliter in the proportion of one-tenth milliliter of bacterial culture per 20 milliliters of cultur medium containing each test compound. In a check operation, nutrient agar containing the same amount of Ivory soap is similarly inoculated with the same organism. After two days' incubation at 37°C., the plates are examined for microbial growth.
The procedure described above is repeated with varying concentrations of 4-chlorophenyl-2-thienyliodonium chloride, 3,4-dichlorophenyl-2-thienyliodonium chloride, and for comparative purposes bis(4-chlorophenyl)iodonium chloride, phenyl-4-chlorophenyliodonium chloride and bis(2,4-dichlorophenyl)iodoniumchloride in a series of tests wherein the culture media are inoculated individually with the organism A. aerogenes.
The procedure described above is once again repeated with each of 2,2'-bisthienyliodonium chloride, phenyl-2-thienyliodonium chloride, 4-bromophenyl-2-thienyliodonium chloride, bis(4-bromophenyl)iodonium chloride and bis(4-bromophenyl)iodonium bromide in a series of tests wherein the culture media are inoculated individually with the organism A. aerogenes.

S. aureus [1] = experiment: Agar plate kill test with Ivory soap, S. aureus; assay type: cell-based; settings: 2 days, 37°C
Protocol: as §1

S. typhosa [2] = experiment: Agar plate kill test with Ivory soap, S. typhosa; assay type: cell-based
Protocol: as §1
The procedure described above is again repeated in a series of tests wherein the culture media are inoculated individually with the organism S. typhosa and wherein the culture media contain varying concentrations of one of the iodonium salts, as set forth in following Table II.

S. typhosa [3] = experiment: Nutrient agar growth test, S. typhosa (Example 3); assay type: cell-based; settings: 0.001 percent by weight, 2 days, 35°C
Excerpt: (§2) The 4-chlorophenyl-2-thienyliodonium chloride, trifluoroacetate and trichloroacetate salts are dispersed in melted nutrient agar to produce culture media containing 0.001 percent by weight of one of the salt compounds. Such melted media are then poured into petri dishes and the solidified surface in each dish inoculated with a 24-hour broth culture, one of the organisms S. aureus and S. typhosa. In a check operation, petri dishes containing unmodified nutrient agar are each individually inoculated in the same manner with the named organisms. After two days' incubation at 35°C. the agar surface in each dish is examined for microbial growth. […] At the time of these observations the check dishes are found to support a heavy growth of the two named organisms.

S. aureus [4] = experiment: Nutrient agar growth test, S. aureus (Example 3); assay type: cell-based; settings: 0.001 percent by weight, 2 days, 35°C
Excerpt: as §2

S. typhosa [5] = experiment: Agar dilution MIC in presence of Ivory soap, S. typhosa; assay type: cell-based; settings: read-out: Minimum growth inhibitory concentration, S. typhosa
Protocol: (§3) The growth-inhibitory activity of the below-indicated compounds against some microorganisms most relevant to the human skin was determined by standard agar dilution techniques to provide the data given in following Table 1.
(§4) In Table 1, the first column gives the chemical structures of the test compounds, while the additional columns give the names of the test organisms and the minimum inhibitory concentration in parts per million (p.p.m.) of the compounds listed for 100% growth inhibition against the particular microorganisms indicated. […] For each p.p.m. of test compound, 50 p.p.m. of Ivory soap was also present in the culture medium for part A of Table 1, while in part B of Table 1, the culture medium was free of any additive other than the test compound. The data for compounds 13 through 16 of part B of Table 1 were taken from Cannon U.S. Pat. No. 3,207,660 while those for compounds 17 and 18 were taken from trade literature.

P. aeruginosa [6] = experiment: Agar dilution MIC in presence of Ivory soap, P. aeruginosa; assay type: cell-based; settings: Pseudomonas aeruginosa; read-out: Minimum growth inhibitory concentration, P. aeruginosa
Protocol: as §3, §4

S. aureus [7] = experiment: Agar dilution MIC in presence of Ivory soap, S. aureus; assay type: cell-based; settings: Staphylococcus aureus; read-out: Minimum growth inhibitory concentration, S. aureus
Protocol: as §3, §4

[8] = Range-finding median lethal dose (LD50) in mice; settings: mouse, in vivo; single oral dose in corn oil, 14-day observation
Protocol: The range-finding oral median lethal dose (LD50) for iodonium and other antimicrobial compounds, including diphenyl- and thienyliodonium salts as well as several proprietary products was determined in mice. Compounds 1 through 11 of following Table 2 were fed to five groups of two mice each, the test compound being administered in suspension in corn oil as a single oral dose and the mortality experience of the mice was observed over a 14-day period. Data for compounds 12 through 15 were taken from U.S. Pat. No. 3,207,660, and for compounds 16 through 18 were taken from trade literature.

mice = settings: cited from earlier work; for Oral LD50 (mice): 12-15 from U.S. Pat. No. 3,207,660, 17, 18 from trade literature
P. aeruginosa [9] = settings: absence of soap; 13-16 from Cannon U.S. Pat. No. 3,207,660, 17-18 from trade literature; cited from earlier work
S. aureus [10] = settings: absence of soap; 13-16 from Cannon U.S. Pat. No. 3,207,660, 17-18 from trade literature; cited from earlier work
[11] = Klebsiella aerogenes, 48 h, read-out: Percent Kill of A. aerogenes
[12] = 48 h, read-out: Percent Kill of S. Typhosa
[13] = Klebsiella aerogenes, 48 h, 10 p.p.m., read-out: Percent Kill of A. aerogenes

SMILES: c1csc([I+]c2cccs2)c1 [2,2'-bisthienyliodonium chloride]
- killing at 5 ppm (A. aerogenes; [11]): 100%
- killing at 5 ppm (S. aureus [1]; Staphylococcus aureus, 48 h, 5 p.p.m., read-out: percent kill of S. aureus): 100%
- killing at 5 ppm (S. typhosa [2]; [12]): 100%

SMILES: Clc1ccc([I+]c2cccs2)cc1Cl [3,4-dichlorophenyl-2-thienyliodonium chloride]
- killing at 1 ppm (A. aerogenes; Klebsiella aerogenes, 48 h, 1 p.p.m., read-out: Percent Kill of A. aerogenes): 100%
- killing at 1 ppm (S. typhosa [2]; [12]): 100%

SMILES: Clc1ccc([I+]c2cccs2)cc1.O=C([O-])C(F)(F)F [4-Chlorophenyl-2-thienyliodonium trifluoroacetate]
- microbial growth on agar surface (S. typhosa [3]): free of microbial growth
- microbial growth on agar surface (S. aureus [4]): free of microbial growth

SMILES: Brc1ccc([I+]c2cccs2)cc1 [4-bromophenyl-2-thienyliodonium chloride]
- killing at 5 ppm (A. aerogenes; [11]): 100%
- killing at 5 ppm (S. typhosa [2]; [12]): 100%

SMILES: Clc1ccc([I+]c2cccs2)cc1 [4-chlorophenyl-2-thienyliodonium trichloroacetate]
- microbial growth on agar surface (S. typhosa [3]): free of microbial growth
- microbial growth on agar surface (S. aureus [4]): free of microbial growth

SMILES: c1ccc([I+]c2ccccc2)cc1 [Compound 1 (Table 1)]
- MIC (S. typhosa [5]): > 500 µg/mL
- MIC (P. aeruginosa [6]): > 500 µg/mL
- MIC (S. aureus [7]): > 500 µg/mL

SMILES: c1ccc([I+]c2ccccc2)cc1 [Compound 1 (Table 2)]
- LD50 [8]: 56.2 mg/kg

SMILES: c1ccc([I+]c2cccs2)cc1 [Compound 2 (Table 1)]
- MIC (S. typhosa [5]): 5 µg/mL
- MIC (P. aeruginosa [6]): 5 µg/mL
- MIC (S. aureus [7]): 5 µg/mL

SMILES: c1csc([I+]c2cccs2)c1 [Compound 3 (Table 1)]
- MIC (S. typhosa [5]): 0.5 µg/mL
- MIC (P. aeruginosa [6]): 5 µg/mL
- MIC (S. aureus [7]): 0.5 µg/mL

SMILES: c1ccc([I+]c2cccs2)cc1 [Compound 3 (Table 2)]
- LD50 [8]: 2000 mg/kg

SMILES: Clc1ccc([I+]c2ccccc2)cc1 [Compound 4 (Table 1)]
- MIC (S. typhosa [5]): > 10 µg/mL
- MIC (P. aeruginosa [6]): > 100 µg/mL
- MIC (S. aureus [7]): 10 µg/mL

SMILES: c1csc([I+]c2cccs2)c1 [Compound 4 (Table 2)]
- LD50 [8]: 500 mg/kg

SMILES: Clc1ccc([I+]c2ccc(Cl)cc2)cc1 [Compound 5 (Table 1)]
- MIC (S. typhosa [5]): 10 µg/mL
- MIC (P. aeruginosa [6]): > 100 µg/mL
- MIC (S. aureus [7]): 10 µg/mL

SMILES: Clc1ccc([I+]c2cccs2)cc1 [Compound 5 (Table 2)]
- LD50 [8]: > 4000 mg/kg

SMILES: Clc1ccc([I+]c2cccs2)cc1 [Compound 6 (Table 1)]
- MIC (S. typhosa [5]): 1 µg/mL
- MIC (P. aeruginosa [6]): 1 µg/mL
- MIC (S. aureus [7]): 1 µg/mL

SMILES: Clc1ccc([I+]c2cccs2)cc1Cl [Compound 6 (Table 2)]
- LD50 [8]: 2000 mg/kg

SMILES: Clc1ccc([I+]c2ccc(Cl)c(Cl)c2)cc1Cl [Compound 7 (Table 1)]
- MIC (S. typhosa [5]): > 10 µg/mL
- MIC (P. aeruginosa [6]): > 500 µg/mL
- MIC (S. aureus [7]): 5 µg/mL

SMILES: Cc1ccc([I+]c2cccs2)cc1 [Compound 7 (Table 2)]
- LD50 [8]: 750 mg/kg

SMILES: Clc1ccc([I+]c2cccs2)cc1Cl [Compound 8 (Table 1)]
- MIC (S. typhosa [5]): 1 µg/mL
- MIC (P. aeruginosa [6]): 1 µg/mL
- MIC (S. aureus [7]): 1 µg/mL

SMILES: CCc1ccc([I+]c2cccs2)cc1 [Compound 8 (Table 2)]
- LD50 [8]: 1500 mg/kg

SMILES: CCOc1ccc([I+]c2ccccc2)cc1 [Compound 9 (Table 1)]
- MIC (S. typhosa [5]): > 500 µg/mL
- MIC (P. aeruginosa [6]): > 500 µg/mL
- MIC (S. aureus [7]): > 500 µg/mL

SMILES: Cc1ccc(C)c([I+]c2cccs2)c1 [Compound 9 (Table 2)]
- LD50 [8]: 3000 mg/kg

SMILES: CCOc1ccc([I+]c2cccs2)cc1 [Compound 10 (Table 1)]
- MIC (S. typhosa [5]): 5 µg/mL
- MIC (P. aeruginosa [6]): 50 µg/mL
- MIC (S. aureus [7]): 5 µg/mL

SMILES: c1ccc(Oc2ccc([I+]c3cccs3)cc2)cc1 [Compound 10 (Table 2)]
- LD50 [8]: 3000 mg/kg

SMILES: c1ccc(-c2ccc([I+]c3cccs3)cc2)cc1 [Compound 11 (Table 2)]
- LD50 [8]: 4000 mg/kg

SMILES: c1ccc2c(c1)[I+]c1ccccc1-2 [Compound 12 (Table 2)]
- Oral LD50 (mice) (mice): 12.5 mg/kg

SMILES: c1ccc2c(c1)[I+]c1ccccc1-2 [Compound 13 (Table 1)]
- Minimum growth inhibitory concentration, P. aeruginosa (P. aeruginosa [9]): 3.13 ppm
- Minimum growth inhibitory concentration, S. aureus (S. aureus [10]): 3.13 ppm

SMILES: c1ccc2c(c1)[I+]c1ccccc1-2 [Compound 13 (Table 2)]
- Oral LD50 (mice) (mice): 8.75 ± 0.57 mg/kg

SMILES: c1ccc2c(c1)[I+]c1ccccc1-2 [Compound 14 (Table 1)]
- Minimum growth inhibitory concentration, P. aeruginosa (P. aeruginosa [9]): 5 ppm
- Minimum growth inhibitory concentration, S. aureus (S. aureus [10]): 5 ppm

SMILES: Clc1cccc2c1-c1c(Cl)cccc1[I+]2 [Compound 14 (Table 2)]
- Oral LD50 (mice) (mice): 8 to 10 mg/kg

SMILES: Clc1cccc2c1-c1ccccc1[I+]2 [Compound 15 (Table 1)]
- Minimum growth inhibitory concentration, P. aeruginosa (P. aeruginosa [9]): 3.13 ppm
- Minimum growth inhibitory concentration, S. aureus (S. aureus [10]): 1.56 ppm

SMILES: Clc1ccc2c(c1)[I+]c1cc(Cl)ccc1-2 [Compound 15 (Table 2)]
- Oral LD50 (mice) (mice): 21.32 ± 3.2 mg/kg

SMILES: Clc1ccc2c(c1)[I+]c1cc(Cl)ccc1-2 [Compound 16 (Table 1)]
- Minimum growth inhibitory concentration, P. aeruginosa (P. aeruginosa [9]): 6.25 ppm
- Minimum growth inhibitory concentration, S. aureus (S. aureus [10]): 1.56 ppm

SMILES: C[CH2][Hg][S]c1ccccc1C(=O)[O-].[Na+] [Merthiolate]
- LD50 (mice), subcutaneous (mice; S.C., trade literature): 66 mg/kg

SMILES: Clc1ccc([I+]c2ccc(Cl)cc2Cl)c(Cl)c1 [bis(2,4-dichlorophenyl)iodonium chloride, bis(2,4-dichlorophenyl)iodoniumchloride, reference compound]
- killing at 10 ppm (A. aerogenes; [13]): 0%
- killing at 10 ppm (S. typhosa [2]; [12]): 0%

SMILES: Brc1ccc([I+]c2ccc(Br)cc2)cc1.[Br-] [bis(4-bromophenyl)iodonium bromide, reference compound]
- Percent Kill of A. aerogenes (A. aerogenes; 10 p.p.m.): 0%
- Percent Kill of S. Typhosa (S. typhosa [2]; 10 p.p.m., Ivory soap): 0%

SMILES: Brc1ccc([I+]c2ccc(Br)cc2)cc1 [bis(4-bromophenyl)iodonium chloride, reference compound]
- killing at 10 ppm (A. aerogenes; [13]): 0%
- killing at 10 ppm (S. typhosa [2]; [12]): 0%

SMILES: Clc1ccc([I+]c2ccc(Cl)cc2)cc1 [bis(4-chlorophenyl)iodonium chloride, reference compound]
- killing at 100 ppm (A. aerogenes; Klebsiella aerogenes, 48 h, 100 p.p.m., read-out: Percent Kill of A. aerogenes): 0%

SMILES: [Cl-].c1ccc([I+]c2ccccc2)cc1 [diphenyliodonium chloride, reference compound]
- growth of S. aureus (S. aureus [1]; 500 p.p.m.): heavy uniform growth
- killing at 500 ppm (S. typhosa [2]; 48 h, 500 p.p.m., Ivory soap, read-out: Percent Kill of S. Typhosa): 0%

SMILES: Oc1c(Cl)cc(Cl)c(Cl)c1Cc1c(O)c(Cl)cc(Cl)c1Cl [hexachlorophene]
- Oral LD50 (mice) (mice): 161 mg/kg

SMILES: c1ccc([I+]c2cccs2)cc1 [phenyl-2-thienyliodonium chloride, Phenyl-2-thienyliodonium chloride]
- killing at […] (A. aerogenes; Klebsiella aerogenes, 48 h, 2.5 p.p.m., read-out: Percent Kill of A. aerogenes): 100%
- killing at […] (S. aureus [1]; Staphylococcus aureus, 48 h, 2.5 p.p.m., read-out: percent kill of S. aureus): 100%
- killing at […] (S. typhosa [2]; [12]): 100%

SMILES: Clc1ccc([I+]c2ccccc2)cc1.[Cl-] [phenyl-4-chlorophenyliodonium chloride, reference compound]
- killing at 10 ppm (A. aerogenes; [13]): 0%
- LD50 [8]: 68 mg/kg
- killing at 10 ppm (S. typhosa [2]; [12]): 0%

From patent US3944498A, “Germicidal detergent containing a thienyliodonium salt” (The Dow Chemical Company, priority 1973, dated 1976)
